Data reported in patent US20230112450A1, “COMBINED USE OF CTB006 AND PONATINIB” (Beijing Sinotau Bio-Pharmaceuticals Technology Co., Ltd., priority 2020, published 2023).

Legend:
S2VP10 cells = assay: Tumor cell survival by ATPlite after 24 h incubation; CDI; format: cell-based; conditions: for CDI: DR5 agonist in combination with Ponatinib
Experimental: (§1) The interaction between CTB006 antibody and Ponatinib: we used coefficient of drug interaction (CDI)^[1,2] to evaluate the combined effect of CTB006 antibody and chemotherapeutic drugs. CDI was calculated according to the following formula: CDI=AB/A×B; AB was the ratio of the detection values of the two-drug combination group to the control group (survival rate of the drug combination group), and A or B was the ratio of the detection values of each individual drug to the control group (survival rate of the drug alone group).
(§2) The survival of each tumor cell was observed by ATPlite method after incubation at 37° C., 5% CO2 for 24 h.
(§3) Methods were as described above.

A549 cells = assay: as above; format: cell-based; conditions: for CDI: DR5 agonist in combination with Ponatinib
Experimental: as §1, §2, §3

MCF-7 cells = assay: as above; format: cell-based; conditions: for CDI: DR5 agonist in combination with Ponatinib
Experimental: as §1, §2, §3

PDX model CS225 = assay: Lung cancer PDX transplantation tumor model; format: in vivo, nude mice or NOD/SCID mice; conditions: day 28 after administration; CTB006 10 mg/kg iv qd, Ponatinib 30 mg/kg p.o qd
Description: (§4) To test the in vivo pharmacodynamic efficacy of CTB006 in combination with Ponatinib, several tumor animal models were selected for testing, including pancreatic cancer cells MIA-PACA-2 CDX model and multiple PDX models covering multiple cancers of intestinal cancer (CS237, CS263, CS264), lung cancer (CS225), and gastric cancer (CS266, GAS033). For mathematical statistics, ANOVA analysis was used, and P<0.05 indicates a statistically significant difference and is marked with *; P<0.01 indicates a highly significant statistical difference and is marked with **.
(§5) Patient-derived transplantation tumor models were established subcutaneously in nude mice or NOD/SCID mice, which was administered with CTB006 alone (10 mg/kg, iv, qd), Ponatinib alone (30 mg/kg, p.o, qd) the combination of them, while the control group was given an equal volume of saline.

PDX model CS264 = assay: Colorectal cancer PDX transplantation tumor model; format: in vivo, nude mice or NOD/SCID mice; conditions: day 32 after administration; CTB006 10 mg/kg iv qd, Ponatinib 30 mg/kg p.o qd
Description: as §4, §5

PDX model CS266 = assay: Gastric cancer PDX transplantation tumor model; conditions: day 31; CTB006 10 mg/kg iv qd, Ponatinib 30 mg/kg p.o qd
Experimental: To test the in vivo pharmacodynamic efficacy of CTB006 in combination with Ponatinib, several tumor animal models were selected for testing, including pancreatic cancer cells MIA-PACA-2 CDX model and multiple PDX models covering multiple cancers of intestinal cancer (CS237, CS263, CS264), lung cancer (CS225), and gastric cancer (CS266, GAS033).
as §5
At day 31 after administration, when the mean tumor volume of the negative control group and CTB006 alone group reached 1 cm^3, the negative control group was sacrificed, and the administration was stopped for 5-Fu positive control group, Ponatinib alone group and the combination group and the observation continued.

PDX model CS237 = assay: Colorectal cancer PDX transplantation tumor model; format: in vivo, nude mice or NOD/SCID mice; conditions: day 52 after administration; CTB006 10 mg/kg iv qd, Ponatinib 30 mg/kg p.o qd
Description: as §4, §5

HT29 cells = assay: Tumor cell survival by ATPlite after 24 h incubation; CDI; format: cell-based
Experimental: as §1, §2

TE1 cells = assay: as above; format: cell-based
Experimental: as §1, §2

Huh-1 cells = assay: as above; format: cell-based
Experimental: as §1, §2

SK-HEP-1 cells = assay: as above; format: cell-based
Experimental: as §1, §2

N87 cells = assay: as above; format: cell-based
Experimental: as §1, §2

S2Lm7AA cells = assay: as above; format: cell-based
Experimental: as §1, §2

SGC-7901 cells = assay: as above; format: cell-based
Experimental: as §1, §2

[1] = test system: MIA-Paca-2 transplanted tumor; assay: Pancreatic cancer CDX model, subcutaneous transplantation; conditions: CTB006 10 mg/kg iv qw, Ponatinib 30 mg/kg p.o qd, alone or in combination, 22 days; euthanized at tumor volume 1 cm^3
Experimental: The CDX model was established by subcutaneous transplantation of MIA-Paca-2 in BALB/c nude mice (Vital River), and drug administration was started when the tumor volume was about 0.1 cm^3, and when it reached 1 cm^3, the animals were ethically euthanized and survival time was recorded. CTB006 (10 mg/kg, iv, qw) and Ponatinib (30 mg/kg, p.o, qd) were administered alone or in combination for treatment groups, and the control group was administered an equal volume of saline.

PDX model GAS033 = assay: Gastric cancer PDX transplantation tumor model; format: in vivo, nude mice or NOD/SCID mice; conditions: day 16 after administration; CTB006 10 mg/kg iv qd, Ponatinib 30 mg/kg p.o qd
Description: as §4, §5

PDX model CS263 = assay: Colorectal cancer PDX transplantation tumor model
Description: as §4, §5

primary tumor cells S2 = assay: Killing of primary tumor cells from ovarian cancer ascites; CDI; format: cell-based
Experimental: as §1, §2

primary tumor cells S1 = assay: as above; format: cell-based
Experimental: as §1, §2

Molecule: AMG655: DR5 agonistic monoclonal antibody Conatumumab (AMG655, Amgen)
- CDI (S2VP10 cells): 0.8123
- CDI (A549 cells): 0.6362
- CDI (MCF-7 cells): 0.317
- killing effect (MCF-7 cells; drug alone): significant killing effect
- killing effect (MCF-7 cells; used in combination): more significant

Molecule: CC(=O)O[C@H]1C(=O)[C@@]2(C)[C@H]([C@H](OC(=O)c3ccccc3)[C@]3(O)C[C@H](OC(=O)[C@H](O)[C@@H](NC(=O)c4ccccc4)c4ccccc4)C(C)=C1C3(C)C)[C@]1(OC(C)=O)CO[C@@H]1C[C@@H]2O [Taxol]
- tumor inhibition rates (TGI) (PDX model CS225): 50%

Molecule: O=c1[nH]cc(F)c(=O)[nH]1 [5-Fu]
- tumor inhibition rates (TGI) (PDX model CS264): 31.2%
- tumor inhibition rates (TGI) (PDX model CS266): 57.5%

Molecule: Cc1ccc(C(=O)Nc2ccc(CN3CCN(C)CC3)c(C(F)(F)F)c2)cc1C#Cc1cnc2cccnn12 [Ponatinib]
- tumor inhibition rate (TGI) (PDX model CS237): 43.8%
- tumor inhibition rates (TGI) (PDX model CS225): 50%
- Survival Rate (%) (S2VP10 cells; Ponatinib alone 15.625 nM): 98.02%
- Survival Rate (%) (S2VP10 cells; Ponatinib alone 31.25 nM): 97.47%
- Survival Rate (%) (S2VP10 cells; Ponatinib alone 62.5 nM): 99.87%
- Survival Rate (%) (S2VP10 cells; Ponatinib alone 125 nM): 96.84%
- Survival Rate (%) (S2VP10 cells; Ponatinib alone 250 nM): 87.54%
- Survival Rate (%) (S2VP10 cells; Ponatinib alone 500 nM): 75.12%
- Survival Rate (%) (S2VP10 cells; Ponatinib alone 1000 nM): 69.06%
- Survival Rate (%) (A549 cells; Ponatinib alone 15.625 nM): 101.54%
- Survival Rate (%) (A549 cells; Ponatinib alone 31.25 nM): 106.99%
- Survival Rate (%) (A549 cells; Ponatinib alone 62.5 nM): 105.05%
- Survival Rate (%) (A549 cells; Ponatinib alone 125 nM): 107.07%
- Survival Rate (%) (A549 cells; Ponatinib alone 250 nM): 104.14%
- Survival Rate (%) (A549 cells; Ponatinib alone 500 nM): 93.76%
- Survival Rate (%) (A549 cells; Ponatinib alone 1000 nM): 81.32%
- Survival Rate (%) (MCF-7 cells; Ponatinib alone 15.625 nM): 102.70%
- Survival Rate (%) (MCF-7 cells; Ponatinib alone 62.5 nM): 103.26%
- Survival Rate (%) (MCF-7 cells; Ponatinib alone 250 nM): 94.14%
- Survival Rate (%) (MCF-7 cells; Ponatinib alone 1000 nM): 68.81%
- Survival Rate (%) (HT29 cells; Ponatinib alone 15.625 nM): 102.78%
- Survival Rate (%) (HT29 cells; Ponatinib alone 31.25 nM): 103.51%
- Survival Rate (%) (HT29 cells; Ponatinib alone 62.5 nM): 102.93%
- Survival Rate (%) (HT29 cells; Ponatinib alone 125 nM): 95.77%
- Survival Rate (%) (HT29 cells; Ponatinib alone 250 nM): 84.39%
- Survival Rate (%) (HT29 cells; Ponatinib alone 500 nM): 87.91%
- Survival Rate (%) (HT29 cells; Ponatinib alone 1000 nM): 80.77%
- Survival Rate (%) (TE1 cells; Ponatinib alone 15.625 nM): 107.94%
- Survival Rate (%) (TE1 cells; Ponatinib alone 31.25 nM): 103.25%
- Survival Rate (%) (TE1 cells; Ponatinib alone 62.5 nM): 104.04%
- Survival Rate (%) (TE1 cells; Ponatinib alone 125 nM): 100.27%
- Survival Rate (%) (TE1 cells; Ponatinib alone 250 nM): 97.30%
- Survival Rate (%) (TE1 cells; Ponatinib alone 500 nM): 89.97%
- Survival Rate (%) (TE1 cells; Ponatinib alone 1000 nM): 73.00%
- Survival Rate (%) (Huh-1 cells; Ponatinib alone 15.625 nM): 97.49%
- Survival Rate (%) (Huh-1 cells; Ponatinib alone 31.25 nM): 92.59%
- Survival Rate (%) (Huh-1 cells; Ponatinib alone 62.5 nM): 91.15%
- Survival Rate (%) (Huh-1 cells; Ponatinib alone 125 nM): 83.68%
- Survival Rate (%) (Huh-1 cells; Ponatinib alone 250 nM): 79.87%
- Survival Rate (%) (Huh-1 cells; Ponatinib alone 500 nM): 70.61%
- Survival Rate (%) (Huh-1 cells; Ponatinib alone 1000 nM): 64.68%
- Survival Rate (%) (SK-HEP-1 cells; Ponatinib alone 15.625 nM): 95.48%
- Survival Rate (%) (SK-HEP-1 cells; Ponatinib alone 31.25 nM): 92.47%
- Survival Rate (%) (SK-HEP-1 cells; Ponatinib alone 62.5 nM): 92.34%
- Survival Rate (%) (SK-HEP-1 cells; Ponatinib alone 125 nM): 84.53%
- Survival Rate (%) (SK-HEP-1 cells; Ponatinib alone 250 nM): 77.45%
- Survival Rate (%) (SK-HEP-1 cells; Ponatinib alone 500 nM): 68.54%
- Survival Rate (%) (SK-HEP-1 cells; Ponatinib alone 1000 nM): 67.85%
- Survival Rate (%) (N87 cells; Ponatinib alone 15.625 nM): 87.89%
- Survival Rate (%) (N87 cells; Ponatinib alone 31.25 nM): 83.79%
- Survival Rate (%) (N87 cells; Ponatinib alone 62.5 nM): 84.36%
- Survival Rate (%) (N87 cells; Ponatinib alone 125 nM): 83.71%
- Survival Rate (%) (N87 cells; Ponatinib alone 250 nM): 82.65%
- Survival Rate (%) (N87 cells; Ponatinib alone 500 nM): 84.46%
- Survival Rate (%) (N87 cells; Ponatinib alone 1000 nM): 82.19%
- Survival Rate (%) (S2Lm7AA cells; Ponatinib alone 15.625 nM): 90.79%
- Survival Rate (%) (S2Lm7AA cells; Ponatinib alone 31.25 nM): 90.05%
- Survival Rate (%) (S2Lm7AA cells; Ponatinib alone 62.5 nM): 85.82%
- Survival Rate (%) (S2Lm7AA cells; Ponatinib alone 125 nM): 87.89%
- Survival Rate (%) (S2Lm7AA cells; Ponatinib alone 250 nM): 79.85%
- Survival Rate (%) (S2Lm7AA cells; Ponatinib alone 500 nM): 76.76%
- Survival Rate (%) (S2Lm7AA cells; Ponatinib alone 1000 nM): 77.11%
- Survival Rate (%) (SGC-7901 cells; Ponatinib alone 15.625 nM): 100.08%
- Survival Rate (%) (SGC-7901 cells; Ponatinib alone 31.25 nM): 98.30%
- Survival Rate (%) (SGC-7901 cells; Ponatinib alone 62.5 nM): 99.90%
- Survival Rate (%) (SGC-7901 cells; Ponatinib alone 125 nM): 95.83%
- Survival Rate (%) (SGC-7901 cells; Ponatinib alone 250 nM): 86.80%
- Survival Rate (%) (SGC-7901 cells; Ponatinib alone 500 nM): 75.77%
- Survival Rate (%) (SGC-7901 cells; Ponatinib alone 1000 nM): 61.42%
- median survival time [1]: 34.5 days
- tumor inhibition rate (TGI) (PDX model GAS033): 37%
- tumor inhibition rates (TGI) (PDX model CS264): 32.4%
- tumor inhibition rates (TGI) (PDX model CS266): 87.7%
- tumor inhibition rates (TGI) (PDX model CS263; day 44 after administration, CTB006 10 mg/kg iv qd, Ponatinib 30 mg/kg p.o qd): 45.3%
- median survival (PDX model CS263; time to reach the mean tumor volume of 1.0 cm^3 as cutoff, administration stopped at day 44): 56 days
- Survival Rate (%) (primary tumor cells S2; Ponatinib alone 25 nM): 101.93%
- Survival Rate (%) (primary tumor cells S2; Ponatinib alone 50 nM): 109.27%
- Survival Rate (%) (primary tumor cells S2; Ponatinib alone 100 nM): 98.46%
- Survival Rate (%) (primary tumor cells S2; Ponatinib alone 200 nM): 90.46%
- Survival Rate (%) (primary tumor cells S1; Ponatinib alone 25 nM): 89.60%
- Survival Rate (%) (primary tumor cells S1; Ponatinib alone 50 nM): 101.09%
- Survival Rate (%) (primary tumor cells S1; Ponatinib alone 100 nM): 85.81%
- Survival Rate (%) (primary tumor cells S1; Ponatinib alone 200 nM): 82.23%

B1: TRAIL: DR5 natural ligand TRAIL (Sino Biological) (protein, UniProt P50591 1-281, looked up)
Tumor necrosis factor ligand …: MAMMEVQGGPSLGQTCVLIVIFTVLLQSLCVAVTYVYFTNELKQMQDKYSKSGIACFLKEDDSYWDPNDEESMNSPCWQVKWQLRQLVRKMILRTSEETISTVQEKQQNISPLVRERGPQRVAAHITGTRGRSNTLSSPNSKNEKALGRKINSWESSRSGHSFLSNLHLRNGELVIHEKGFYYIYSQTYFRFQEEIKENTKNDKQMVQYIYKYTSYPDPILLMKSARNSCWSKDAEYGLYSIYQGGIFELKENDRIFVSVTNEHLIDMDHEASFFGAFLVG
- CDI (S2VP10 cells): 0.5179
- CDI (A549 cells): 0.7329
- CDI (MCF-7 cells): 0.3303
- killing effect (MCF-7 cells; drug alone): did not have a significant killing effect
